Experiments:
Heme-binding protein A [1] = target: T1, Heme-binding protein A (Glaesserella parasuis, UniProt B8F653); experiment: Isothermal Titration Calorimetry (ITC); details: pH 7.4; 37 °C
T1 sequence (B8F653 whole entry): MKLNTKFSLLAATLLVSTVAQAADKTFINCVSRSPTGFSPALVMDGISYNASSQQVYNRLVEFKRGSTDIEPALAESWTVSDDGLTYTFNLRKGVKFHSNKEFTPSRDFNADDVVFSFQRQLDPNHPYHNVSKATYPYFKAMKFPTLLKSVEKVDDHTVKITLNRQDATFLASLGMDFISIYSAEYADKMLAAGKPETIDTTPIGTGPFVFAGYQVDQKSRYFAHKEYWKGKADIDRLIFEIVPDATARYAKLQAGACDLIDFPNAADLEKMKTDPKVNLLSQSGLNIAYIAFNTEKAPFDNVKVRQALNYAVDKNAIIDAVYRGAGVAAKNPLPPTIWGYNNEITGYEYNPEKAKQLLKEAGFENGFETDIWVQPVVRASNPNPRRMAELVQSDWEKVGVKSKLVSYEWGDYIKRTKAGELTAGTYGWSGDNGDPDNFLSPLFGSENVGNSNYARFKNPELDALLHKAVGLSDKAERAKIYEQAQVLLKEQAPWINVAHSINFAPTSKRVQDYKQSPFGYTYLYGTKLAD
Method: (§1) Purified test proteins were dialyzed overnight against 10 mM Tris-HCl, pH 7.4, at 4°C. The resultant dialysis buffer was then used to dissolve the test compounds. Titrations were always preceded by an initial injection of 3 μL and were carried out using 10-μL injections applied 300 s apart. The sample was stirred at a speed of 400 rpm throughout.

Heme-binding protein A [2] = target: Heme-binding protein A (Actinobacillus pleuropneumoniae serovar 9 str. CVJ13261, UniProt A3N3U8); experiment: Isothermal Titration Calorimetry (ITC); details: pH 7.4; 37 °C
Sequence of Heme-binding protein A (Actinobacillus pleuropneumoniae serovar 9 str. CVJ13261, UniProt A3N3U8) (A3N3U8 whole entry): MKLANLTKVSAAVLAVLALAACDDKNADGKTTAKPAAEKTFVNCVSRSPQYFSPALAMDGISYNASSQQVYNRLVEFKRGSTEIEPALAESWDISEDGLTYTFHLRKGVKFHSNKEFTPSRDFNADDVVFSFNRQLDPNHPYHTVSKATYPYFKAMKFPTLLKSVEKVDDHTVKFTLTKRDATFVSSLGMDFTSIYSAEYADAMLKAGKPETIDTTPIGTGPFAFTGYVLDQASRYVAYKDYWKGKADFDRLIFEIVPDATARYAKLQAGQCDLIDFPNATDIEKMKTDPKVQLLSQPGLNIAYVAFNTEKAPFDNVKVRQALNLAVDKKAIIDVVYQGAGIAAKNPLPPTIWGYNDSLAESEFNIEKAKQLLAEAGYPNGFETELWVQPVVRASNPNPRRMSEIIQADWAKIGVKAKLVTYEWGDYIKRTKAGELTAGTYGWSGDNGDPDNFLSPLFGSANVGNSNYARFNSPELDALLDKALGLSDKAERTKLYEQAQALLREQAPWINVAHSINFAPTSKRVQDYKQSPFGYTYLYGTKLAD
Method: as §1

Structure (SMILES) | Kd (Heme-binding protein A [1]) | Kd (Heme-binding protein A [2])
N[C@@H](CCC(=O)N[C@@H](CS)C(=O)NCC(=O)O)C(=O)O [GLUTATHIONE] | 1900 nM | –
CSC[C@H](NC(=O)CC[C@H](N)C(=O)O)C(=O)NCC(=O)O [S-methylglutathione] | 900 nM | 1170 nM

Reference: BindingDB's records for doi:10.1186/1471-2091-12-59 (Ghent University, 2011)
